Like-named read-outs stand apart in the source and are kept apart here.
Key:
NEK9 = assay: Kinobeads competition binding: NEK9; design: species or system human; conditions: target NEK9
ACAD11 = target: T1, ACAD11 (Homo sapiens, UniProt Q709F0); assay: Kinobeads competition binding: ACAD11; conditions: target ACAD11
T1 construct: endogenous in cells
T1 sequence (Q709F0 1-780): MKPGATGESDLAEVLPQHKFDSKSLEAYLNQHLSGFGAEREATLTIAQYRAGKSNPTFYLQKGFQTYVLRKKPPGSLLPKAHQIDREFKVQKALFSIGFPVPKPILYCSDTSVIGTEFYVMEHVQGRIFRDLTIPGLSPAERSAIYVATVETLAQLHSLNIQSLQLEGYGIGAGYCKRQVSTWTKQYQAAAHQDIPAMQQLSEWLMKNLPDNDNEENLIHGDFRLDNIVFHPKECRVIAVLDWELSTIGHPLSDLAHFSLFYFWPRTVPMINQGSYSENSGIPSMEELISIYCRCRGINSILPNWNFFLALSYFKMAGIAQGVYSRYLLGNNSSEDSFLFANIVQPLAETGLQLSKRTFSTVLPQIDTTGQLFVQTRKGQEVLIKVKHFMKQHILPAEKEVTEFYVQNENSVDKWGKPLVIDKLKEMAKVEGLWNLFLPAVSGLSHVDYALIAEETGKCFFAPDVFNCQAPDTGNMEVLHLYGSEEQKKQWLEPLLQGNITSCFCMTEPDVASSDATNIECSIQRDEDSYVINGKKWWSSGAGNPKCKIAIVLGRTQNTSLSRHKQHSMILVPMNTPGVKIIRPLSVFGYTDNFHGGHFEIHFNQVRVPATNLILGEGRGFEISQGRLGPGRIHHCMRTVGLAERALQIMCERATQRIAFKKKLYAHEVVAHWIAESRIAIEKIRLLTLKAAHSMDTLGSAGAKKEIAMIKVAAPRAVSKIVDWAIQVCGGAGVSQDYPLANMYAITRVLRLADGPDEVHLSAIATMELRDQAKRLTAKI
From the text: Supplement 41589_2023_1459_MOESM4_ESM.xlsx, sheet "CATDS matrix" | column: ACAD11

DAPK3 = target: T2, DAPK3 (Homo sapiens, UniProt O43293); assay: Kinobeads competition binding: DAPK3; conditions: target DAPK3;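 note: share of all-target engagement taken by this protein at its own Kdapp concentration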
T2 construct: endogenous in cells

CSNK1G3 = target: T3, CSNK1G3 (Homo sapiens, UniProt Q9Y6M4); assay: Kinobeads competition binding: CSNK1G3; conditions: target CSNK1G3;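 note: share of total target engagement due to this protein at one drug concentration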
T3 construct: endogenous in cells
From the text: Supplement 41589_2023_1459_MOESM4_ESM.xlsx, sheet "CATDS matrix" | column: CSNK1G3

PHKG2 = target: T4, PHKG2 (Homo sapiens, UniProt P15735); assay: Kinobeads competition binding: PHKG2; conditions: target PHKG2
T4 construct: a mixture of lysates from five cancer cell lines; endogenous in cells
T4 sequence (P15735 1-406): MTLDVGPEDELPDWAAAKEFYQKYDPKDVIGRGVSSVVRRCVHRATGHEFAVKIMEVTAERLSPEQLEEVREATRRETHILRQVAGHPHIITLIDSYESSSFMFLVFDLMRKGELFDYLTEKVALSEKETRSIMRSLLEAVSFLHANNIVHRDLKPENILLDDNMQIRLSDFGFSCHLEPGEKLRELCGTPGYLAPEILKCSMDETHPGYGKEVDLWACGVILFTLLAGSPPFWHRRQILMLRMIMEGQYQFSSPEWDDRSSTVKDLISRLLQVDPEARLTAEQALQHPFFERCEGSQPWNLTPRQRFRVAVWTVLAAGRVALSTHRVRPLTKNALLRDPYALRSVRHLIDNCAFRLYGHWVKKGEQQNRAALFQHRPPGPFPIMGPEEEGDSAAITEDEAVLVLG

BRAF = assay: Kinobeads competition binding: BRAF; design: species or system human; conditions: target BRAF
FRK = target: T5, FRK (Homo sapiens, UniProt P42685); assay: Kinobeads competition binding: FRK; conditions: target FRK
T5 construct: endogenous in cells
From the text: Supplement 41589_2023_1459_MOESM4_ESM.xlsx, sheet "CATDS matrix" | column: FRK

EPHA5 = target: T6, EPHA5 (Homo sapiens, UniProt P54756); assay: Kinobeads competition binding: EPHA5; conditions: target EPHA5
T6 construct: endogenous in cells
From the text: Supplement 41589_2023_1459_MOESM4_ESM.xlsx, sheet "CATDS matrix" | column: EPHA5

MAP4K2 = assay: Kinobeads competition binding: MAP4K2; design: species or system human; conditions: target MAP4K2
ERBB3 = assay: Kinobeads competition binding: ERBB3; design: species or system human; conditions: target ERBB3;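 note: selectivity score: engagement of this protein divided by summed engagement of all targets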
CAMK2G = target: T7, CAMK2G (Homo sapiens, UniProt Q13555); assay: Kinobeads competition binding: CAMK2G; conditions: target CAMK2G
T7 construct: endogenous in cells

EPHA4 = target: T8, EPHA4 (Homo sapiens, UniProt P54764); assay: Kinobeads competition binding: EPHA4; conditions: target EPHA4
T8 construct: endogenous in cells
From the text: Supplement 41589_2023_1459_MOESM4_ESM.xlsx, sheet "CATDS matrix" | column: EPHA4

MAP2K6 = assay: Kinobeads competition binding: MAP2K6; design: species or system human; conditions: target MAP2K6
CDC42BPA = assay: Kinobeads competition binding: CDC42BPA; design: species or system human; conditions: target CDC42BPA;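 note: selectivity score: engagement of this protein divided by summed engagement of all targets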
CLK2 = assay: Kinobeads competition binding: CLK2; design: species or system human; conditions: target CLK2
PI4KA = assay: Kinobeads competition binding: PI4KA; design: species or system human; conditions: target PI4KA
NLK = assay: Kinobeads competition binding: NLK; design: species or system human; conditions: target NLK;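 note: selectivity score: engagement of this protein divided by summed engagement of all targets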
CDC42BPG = assay: Kinobeads competition binding: CDC42BPG; design: species or system human; conditions: target CDC42BPG
BCR = target: T9, BCR (Homo sapiens, UniProt P00519+P11274); assay: Kinobeads competition binding: BCR; conditions: target BCR
T9 construct: endogenous in cells
From the text: Supplement 41589_2023_1459_MOESM4_ESM.xlsx, sheet "CATDS matrix" | column: BCR

CLK4 = target: T10, CLK4 (Homo sapiens, UniProt Q9HAZ1); assay: Kinobeads two-dose competition binding: CLK4; conditions: for CATDS: target CLK4;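 for CATDS: target engagement share of this target among all targets at its Kdapp concentration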
T10 construct: to maximize the representation of endogenous proteins; endogenous in cells
T10 sequence (Q9HAZ1 whole entry): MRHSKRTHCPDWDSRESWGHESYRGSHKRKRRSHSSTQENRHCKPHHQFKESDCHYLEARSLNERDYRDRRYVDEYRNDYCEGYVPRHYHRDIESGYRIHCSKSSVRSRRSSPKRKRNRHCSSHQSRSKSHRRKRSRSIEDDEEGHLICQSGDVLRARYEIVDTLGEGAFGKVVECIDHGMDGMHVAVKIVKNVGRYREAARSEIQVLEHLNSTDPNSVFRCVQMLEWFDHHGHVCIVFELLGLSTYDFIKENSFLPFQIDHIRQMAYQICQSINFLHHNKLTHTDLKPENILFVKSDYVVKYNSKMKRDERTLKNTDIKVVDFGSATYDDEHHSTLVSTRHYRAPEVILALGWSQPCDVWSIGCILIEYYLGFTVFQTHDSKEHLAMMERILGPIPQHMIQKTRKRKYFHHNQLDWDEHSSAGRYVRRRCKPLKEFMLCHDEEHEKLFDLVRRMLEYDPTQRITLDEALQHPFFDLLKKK

T7 sequence (Q13555 whole entry): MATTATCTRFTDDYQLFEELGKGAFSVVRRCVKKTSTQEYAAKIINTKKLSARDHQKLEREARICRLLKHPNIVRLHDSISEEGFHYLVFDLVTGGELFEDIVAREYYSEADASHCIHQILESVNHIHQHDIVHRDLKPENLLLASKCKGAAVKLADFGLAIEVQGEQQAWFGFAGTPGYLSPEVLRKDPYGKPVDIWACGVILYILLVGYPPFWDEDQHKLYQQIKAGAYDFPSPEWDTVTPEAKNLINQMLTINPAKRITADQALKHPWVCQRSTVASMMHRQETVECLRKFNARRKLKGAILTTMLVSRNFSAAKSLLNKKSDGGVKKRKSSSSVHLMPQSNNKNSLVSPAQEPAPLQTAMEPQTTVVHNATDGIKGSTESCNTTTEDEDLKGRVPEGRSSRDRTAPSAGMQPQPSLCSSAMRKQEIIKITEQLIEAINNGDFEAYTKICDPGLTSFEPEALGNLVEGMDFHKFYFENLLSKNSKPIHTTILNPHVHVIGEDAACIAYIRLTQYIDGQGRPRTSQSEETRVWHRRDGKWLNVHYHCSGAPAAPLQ
T6 sequence (P54756 25-1037): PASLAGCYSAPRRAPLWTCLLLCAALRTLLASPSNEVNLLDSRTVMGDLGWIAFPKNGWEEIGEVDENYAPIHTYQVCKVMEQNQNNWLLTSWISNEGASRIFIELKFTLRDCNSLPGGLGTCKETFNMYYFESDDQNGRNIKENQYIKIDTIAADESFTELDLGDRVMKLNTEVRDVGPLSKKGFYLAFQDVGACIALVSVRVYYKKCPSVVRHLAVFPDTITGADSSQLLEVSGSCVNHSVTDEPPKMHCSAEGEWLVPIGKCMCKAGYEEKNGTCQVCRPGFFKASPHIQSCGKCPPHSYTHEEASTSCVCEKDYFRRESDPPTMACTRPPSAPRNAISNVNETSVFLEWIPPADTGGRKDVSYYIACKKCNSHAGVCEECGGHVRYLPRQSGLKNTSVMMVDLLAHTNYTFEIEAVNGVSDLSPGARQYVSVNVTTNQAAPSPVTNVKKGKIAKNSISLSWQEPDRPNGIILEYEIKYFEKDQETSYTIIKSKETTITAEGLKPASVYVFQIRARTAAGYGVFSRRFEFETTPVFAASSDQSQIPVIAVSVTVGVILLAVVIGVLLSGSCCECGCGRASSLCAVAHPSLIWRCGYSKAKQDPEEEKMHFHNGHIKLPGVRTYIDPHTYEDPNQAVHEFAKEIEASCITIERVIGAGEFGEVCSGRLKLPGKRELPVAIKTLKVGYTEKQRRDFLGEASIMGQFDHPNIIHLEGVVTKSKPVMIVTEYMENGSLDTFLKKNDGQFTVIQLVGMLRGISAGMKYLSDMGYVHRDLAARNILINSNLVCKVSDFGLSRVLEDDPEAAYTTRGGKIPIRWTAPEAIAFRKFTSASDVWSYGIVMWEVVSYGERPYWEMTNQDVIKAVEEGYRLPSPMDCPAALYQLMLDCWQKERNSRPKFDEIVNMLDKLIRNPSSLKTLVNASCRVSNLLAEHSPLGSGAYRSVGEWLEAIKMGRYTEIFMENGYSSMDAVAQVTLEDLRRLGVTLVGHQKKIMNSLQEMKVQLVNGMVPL
T9 sequence (P11274+P00519 fused): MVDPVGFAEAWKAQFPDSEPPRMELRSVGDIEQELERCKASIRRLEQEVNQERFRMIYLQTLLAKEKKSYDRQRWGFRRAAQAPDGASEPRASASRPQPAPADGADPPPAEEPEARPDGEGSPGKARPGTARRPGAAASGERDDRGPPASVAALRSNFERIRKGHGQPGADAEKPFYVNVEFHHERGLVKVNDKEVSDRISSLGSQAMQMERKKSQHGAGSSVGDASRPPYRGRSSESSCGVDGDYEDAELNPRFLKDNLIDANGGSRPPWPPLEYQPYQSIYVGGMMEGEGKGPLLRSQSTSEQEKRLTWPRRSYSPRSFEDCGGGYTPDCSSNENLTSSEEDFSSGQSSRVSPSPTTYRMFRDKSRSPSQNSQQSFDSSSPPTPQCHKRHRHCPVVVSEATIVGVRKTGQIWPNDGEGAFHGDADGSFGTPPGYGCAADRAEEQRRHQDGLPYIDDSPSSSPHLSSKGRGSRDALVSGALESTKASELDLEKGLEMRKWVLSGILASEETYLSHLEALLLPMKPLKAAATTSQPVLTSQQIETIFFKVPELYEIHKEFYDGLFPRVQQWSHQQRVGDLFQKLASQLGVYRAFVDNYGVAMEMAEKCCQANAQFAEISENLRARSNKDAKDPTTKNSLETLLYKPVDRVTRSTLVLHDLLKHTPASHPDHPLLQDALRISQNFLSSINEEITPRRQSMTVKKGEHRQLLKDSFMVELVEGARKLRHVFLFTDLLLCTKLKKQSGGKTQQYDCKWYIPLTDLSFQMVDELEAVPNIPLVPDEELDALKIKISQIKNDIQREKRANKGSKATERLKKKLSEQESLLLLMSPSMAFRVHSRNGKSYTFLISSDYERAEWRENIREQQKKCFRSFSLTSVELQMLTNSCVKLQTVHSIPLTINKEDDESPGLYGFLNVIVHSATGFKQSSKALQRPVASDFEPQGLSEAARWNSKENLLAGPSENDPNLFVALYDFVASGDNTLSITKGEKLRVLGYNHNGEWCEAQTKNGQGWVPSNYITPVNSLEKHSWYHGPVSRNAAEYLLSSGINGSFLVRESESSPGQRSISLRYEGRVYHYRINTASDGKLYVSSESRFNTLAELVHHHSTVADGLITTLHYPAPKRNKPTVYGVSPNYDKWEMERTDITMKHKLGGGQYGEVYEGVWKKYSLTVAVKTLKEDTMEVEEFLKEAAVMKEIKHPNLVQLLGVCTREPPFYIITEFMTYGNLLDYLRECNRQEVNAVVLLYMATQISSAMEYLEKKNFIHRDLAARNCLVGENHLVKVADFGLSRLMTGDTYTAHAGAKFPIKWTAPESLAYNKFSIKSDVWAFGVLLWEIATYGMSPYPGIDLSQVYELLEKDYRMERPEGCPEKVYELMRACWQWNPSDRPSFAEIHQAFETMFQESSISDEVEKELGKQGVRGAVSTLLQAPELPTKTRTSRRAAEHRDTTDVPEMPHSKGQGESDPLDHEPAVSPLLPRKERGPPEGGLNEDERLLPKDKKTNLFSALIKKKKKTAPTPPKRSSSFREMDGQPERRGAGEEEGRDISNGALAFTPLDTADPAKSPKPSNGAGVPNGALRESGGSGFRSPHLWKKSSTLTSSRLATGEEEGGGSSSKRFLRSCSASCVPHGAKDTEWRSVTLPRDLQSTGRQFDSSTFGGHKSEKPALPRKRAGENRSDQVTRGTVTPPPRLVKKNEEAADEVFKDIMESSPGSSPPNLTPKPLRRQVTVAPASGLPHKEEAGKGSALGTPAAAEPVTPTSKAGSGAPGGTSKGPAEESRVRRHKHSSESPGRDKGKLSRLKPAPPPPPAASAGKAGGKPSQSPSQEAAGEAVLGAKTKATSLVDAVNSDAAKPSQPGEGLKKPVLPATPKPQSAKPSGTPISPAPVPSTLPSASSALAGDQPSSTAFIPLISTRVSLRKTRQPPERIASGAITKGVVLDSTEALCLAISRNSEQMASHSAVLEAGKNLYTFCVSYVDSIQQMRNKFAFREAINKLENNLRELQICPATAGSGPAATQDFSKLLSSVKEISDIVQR
T3 sequence (Q9Y6M4 whole entry): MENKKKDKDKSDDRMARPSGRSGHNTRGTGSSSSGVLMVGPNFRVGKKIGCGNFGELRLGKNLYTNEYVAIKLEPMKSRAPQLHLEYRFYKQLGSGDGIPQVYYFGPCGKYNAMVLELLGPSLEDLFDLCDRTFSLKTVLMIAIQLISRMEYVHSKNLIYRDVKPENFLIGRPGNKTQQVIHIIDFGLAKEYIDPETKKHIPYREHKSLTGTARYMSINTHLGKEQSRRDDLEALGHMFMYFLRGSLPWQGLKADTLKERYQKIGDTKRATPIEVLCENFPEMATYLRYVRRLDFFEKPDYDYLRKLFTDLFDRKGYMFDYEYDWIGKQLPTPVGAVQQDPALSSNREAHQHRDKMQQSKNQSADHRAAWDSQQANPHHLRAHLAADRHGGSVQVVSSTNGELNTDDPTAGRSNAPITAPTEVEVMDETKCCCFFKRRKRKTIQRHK
T5 sequence (P42685 whole entry): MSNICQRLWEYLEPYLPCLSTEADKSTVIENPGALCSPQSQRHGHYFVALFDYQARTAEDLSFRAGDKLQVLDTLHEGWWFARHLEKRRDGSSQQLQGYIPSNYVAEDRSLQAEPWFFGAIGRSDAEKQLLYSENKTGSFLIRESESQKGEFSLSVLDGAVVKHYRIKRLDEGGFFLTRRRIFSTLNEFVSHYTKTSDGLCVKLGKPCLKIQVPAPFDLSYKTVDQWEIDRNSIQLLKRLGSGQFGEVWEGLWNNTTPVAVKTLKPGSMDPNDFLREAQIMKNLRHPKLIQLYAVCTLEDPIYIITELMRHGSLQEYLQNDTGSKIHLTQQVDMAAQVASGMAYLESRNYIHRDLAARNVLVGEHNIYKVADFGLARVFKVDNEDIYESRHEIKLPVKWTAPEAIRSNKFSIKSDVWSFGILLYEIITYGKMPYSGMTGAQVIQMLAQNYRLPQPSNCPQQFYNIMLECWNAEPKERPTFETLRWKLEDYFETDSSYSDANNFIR

Row | Structure (SMILES) | CATDS (NEK9) | CATDS (ACAD11) | CATDS (DAPK3) | CATDS (CSNK1G3) | CATDS (PHKG2) | CATDS (BRAF) | CATDS (FRK) | CATDS (EPHA5) | CATDS (MAP4K2) | CATDS (ERBB3) | CATDS (CAMK2G) | CATDS (EPHA4) | CATDS (MAP2K6) | CATDS (CDC42BPA) | CATDS (CLK2) | CATDS (PI4KA) | CATDS (NLK) | CATDS (CDC42BPG) | CATDS (BCR) | CATDS (CLK4) | other results
1 | CCN1CCN(Cc2ccc(Nc3ncc(F)c(-c4cc(F)c5nc(C)n(C(C)C)c5c4)n3)nc2)CC1 [Abemaciclib] | 0 | 0 | 0 | 0 | 0 | 0 | 0 | 0 | 0 | 0 | 0.09397 | 0 | 0 | 0 | 0 | 0 | 0 | 0 | 0 |  | 
2 | CN(C)C/C=C/C(=O)Nc1cc2c(Nc3ccc(F)c(Cl)c3)ncnc2cc1O[C@H]1CCOC1 [Afatinib] |  | 0 |  | 0 |  |  | 0 | 0 |  |  |  | 0 |  |  |  | 0 |  |  | 0 | 0 | 
3 | C[C@]12O[C@H](C[C@]1(O)CO)n1c3ccccc3c3c4c(c5c6ccccc6n2c5c31)CNC4=O [Lestaurtinib] |  |  |  |  |  |  |  |  |  |  |  |  |  |  |  |  |  |  |  |  | potency estimated from few doses (CLK4; read-out: Lestaurtinib Drugmatrix value, Gene Name CLK4): 50.2 nM
4 | CCc1cc2c(cc1N1CCC(N3CCOCC3)CC1)C(C)(C)c1[nH]c3cc(C#N)ccc3c1C2=O [Alectinib] | 0 | 0 | 0 | 0 | 0 | 0 | 0 | 0 | 0 | 0 | 0 | 0 | 0 | 0 | 0 | 0 | 0 | 0 | 0 | 0 | 
5 | Nc1ncnc2[nH]c(-c3ccccc3)nc12 [AH5015_KCGS] | 0 | 0 | 0 | 0 | 0 | 0 | 0 | 0.02942 | 0 | 0 | 0 | 0 | 0 | 0 | 0 | 0 | 0 | 0 | 0.0268 | 0 | potency estimated from few doses (CLK4; Kinobeads two-dose, Drugmatrix - all 2, read-out: apparent Kd CLK4): > 1000 nM
6 | N#CC1(c2ccc(NC(=O)c3cccnc3NCc3ccncc3)cc2)CCCC1 [Apatinib] | 0 | 0 | 0 | 0 | 0 | 0 | 0 | 0 | 0 | 0 | 0 | 0 | 0 | 0 | 0 | 0 | 0 | 0 | 0 | 0 | 

Reference: article PMC11062922 (Nature Chemical Biology, 2023)
